Three compounds from PMC3998376 (Journal of chromatography. A, 2014) can be followed below.

The target of one data set is T1, nuclear BCRP (Homo sapiens, UniProt Q9UNQ0).
T1 sequence (Q9UNQ0 1-655): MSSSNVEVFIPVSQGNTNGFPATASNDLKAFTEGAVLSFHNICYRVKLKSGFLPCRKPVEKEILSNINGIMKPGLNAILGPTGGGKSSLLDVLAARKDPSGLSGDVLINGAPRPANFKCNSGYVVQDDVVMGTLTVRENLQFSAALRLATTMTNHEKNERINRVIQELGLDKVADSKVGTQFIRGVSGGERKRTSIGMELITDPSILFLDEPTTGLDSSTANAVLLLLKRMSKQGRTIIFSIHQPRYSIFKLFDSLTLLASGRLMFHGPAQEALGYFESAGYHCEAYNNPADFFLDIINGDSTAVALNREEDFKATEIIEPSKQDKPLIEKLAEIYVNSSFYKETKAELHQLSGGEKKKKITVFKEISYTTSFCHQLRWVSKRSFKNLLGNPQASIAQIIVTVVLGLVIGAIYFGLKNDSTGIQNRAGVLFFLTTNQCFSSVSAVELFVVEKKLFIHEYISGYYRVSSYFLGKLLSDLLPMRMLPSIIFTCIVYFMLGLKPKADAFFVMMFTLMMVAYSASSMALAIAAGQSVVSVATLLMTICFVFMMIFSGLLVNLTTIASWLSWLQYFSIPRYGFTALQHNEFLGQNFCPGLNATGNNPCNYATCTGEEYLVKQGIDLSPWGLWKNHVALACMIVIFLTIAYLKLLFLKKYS
The experiment in a line: Screening of BCRP ligands, single frontal displacement of etoposide on NMAC. The following applies: NMAC(LN229) column, verapamil in mobile phase, etoposide as marker ligand.

For data set [1], the system named is Pgp, MRP1 and BCRP transporters (LN-229 nuclear membranes, open tubular). The experiment in a line: Frontal affinity chromatography on NMAC. It is filed as binding, human. The following applies: read-out: Binding affinity (Kd); NMAC(LN-229)-OT column, ammonium acetate 10 mM pH 7.4, 0.05 mL/min.
For data set [2], the system named is Pgp, MRP1 and BCRP transporters (LN-229 cellular membranes, open tubular). The experiment in a line: Frontal affinity chromatography on CMAC. The following applies: read-out: Binding affinity (Kd); CMAC(LN-229)-OT column, ammonium acetate 10 mM pH 7.4, 0.05 mL/min. Format: binding, human.
Data set [3] concerns Pgp, MRP1 and BCRP. Briefly: Frontal affinity chromatography on NMAC. Format: binding, human. The following applies: human, pH 7.4.
For data set [4], the system named is Pgp, MRP1 and BCRP co-immobilized. The experiment in a line: in vitro. The following applies: human, pH 7.4, Binding affinity (Kd), NMAC(LN-229)-IAM column, all transporters, ammonium acetate 10 mM pH 7.4, 0.4 mL/min.
The target of a further data set is MRP1 (Homo sapiens, UniProt P33527). Briefly: Selective Kd determination on NMAC. It is filed as binding.
Data set [5] relates to Pgp, MRP1 and BCRP. The experiment in a line: Frontal affinity chromatography on CMAC. The following applies: human, pH 7.4. It is filed as binding, human.
Another data set concerns the target T2, BCRP (Homo sapiens, UniProt Q9UNQ0).
T2 sequence (Q9UNQ0 1-655): T1 sequence (Q9UNQ0 1-655)
The experiment in a line: Selective Kd determination on NMAC. It is filed as binding.

Chain of MRP1 (P33527 whole entry): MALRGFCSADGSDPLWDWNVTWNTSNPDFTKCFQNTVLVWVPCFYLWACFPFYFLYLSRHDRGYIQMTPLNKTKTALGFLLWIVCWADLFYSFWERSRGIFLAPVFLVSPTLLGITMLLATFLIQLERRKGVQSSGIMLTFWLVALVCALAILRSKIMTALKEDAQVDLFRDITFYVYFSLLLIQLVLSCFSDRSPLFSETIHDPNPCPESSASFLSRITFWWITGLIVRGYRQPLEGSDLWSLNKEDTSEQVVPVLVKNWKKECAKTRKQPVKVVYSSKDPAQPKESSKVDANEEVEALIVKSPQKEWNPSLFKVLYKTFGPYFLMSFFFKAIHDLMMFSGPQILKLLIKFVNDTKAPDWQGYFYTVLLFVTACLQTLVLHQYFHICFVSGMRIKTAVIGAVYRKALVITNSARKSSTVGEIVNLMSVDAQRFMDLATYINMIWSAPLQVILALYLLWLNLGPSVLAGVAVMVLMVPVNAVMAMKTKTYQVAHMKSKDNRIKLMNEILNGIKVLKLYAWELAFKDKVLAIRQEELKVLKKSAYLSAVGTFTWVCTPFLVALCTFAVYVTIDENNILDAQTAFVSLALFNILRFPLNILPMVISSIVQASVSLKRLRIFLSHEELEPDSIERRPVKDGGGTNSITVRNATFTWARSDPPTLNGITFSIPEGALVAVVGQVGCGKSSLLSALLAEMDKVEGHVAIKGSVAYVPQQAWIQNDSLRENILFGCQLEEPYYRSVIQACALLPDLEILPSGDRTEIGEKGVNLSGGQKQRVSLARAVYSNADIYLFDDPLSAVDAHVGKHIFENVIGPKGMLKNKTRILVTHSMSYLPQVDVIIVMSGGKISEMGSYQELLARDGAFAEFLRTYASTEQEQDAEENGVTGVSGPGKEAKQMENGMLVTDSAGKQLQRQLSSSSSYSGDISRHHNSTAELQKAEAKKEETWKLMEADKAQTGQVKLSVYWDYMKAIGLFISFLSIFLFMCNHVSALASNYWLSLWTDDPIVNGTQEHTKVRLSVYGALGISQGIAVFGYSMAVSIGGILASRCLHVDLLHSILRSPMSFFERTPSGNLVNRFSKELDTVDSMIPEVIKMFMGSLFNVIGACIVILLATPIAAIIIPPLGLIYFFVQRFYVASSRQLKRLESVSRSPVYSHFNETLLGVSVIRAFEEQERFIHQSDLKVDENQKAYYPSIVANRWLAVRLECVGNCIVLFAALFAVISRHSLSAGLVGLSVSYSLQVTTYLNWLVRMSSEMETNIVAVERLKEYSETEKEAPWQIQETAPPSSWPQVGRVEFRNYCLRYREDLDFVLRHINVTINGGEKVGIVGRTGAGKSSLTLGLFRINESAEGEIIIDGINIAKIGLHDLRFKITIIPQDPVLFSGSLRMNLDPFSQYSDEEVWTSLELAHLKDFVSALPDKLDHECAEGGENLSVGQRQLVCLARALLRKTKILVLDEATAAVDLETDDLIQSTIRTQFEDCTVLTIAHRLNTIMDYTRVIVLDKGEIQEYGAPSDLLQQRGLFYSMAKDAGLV

In the case of `Cc1cn([C@H]2C[C@H](N=[N+]=[N-])[C@@H](CO)O2)c(=O)[nH]c1=O` [AZT, zidovudine], on nuclear BCRP, the “Change in retention of etoposide” value was −5%.

For orientation: Kd means the free concentration of one partner at which half of the binding sites on the other are occupied at equilibrium, for simple one-to-one binding. With `COc1ccc(-c2coc3cc(O)cc(O)c3c2=O)cc1` [biochanin A], the Kd in data set [1] worked out at 1.75 ± 0.36 µM; in data set [2], 0.69 ± 0.17 µM.

`COc1cc([C@@H]2c3cc4c(cc3[C@@H](O[C@@H]3O[C@@H]5CO[C@@H](C)O[C@H]5[C@H](O)[C@H]3O)[C@H]3COC(=O)[C@H]23)OCO4)cc(OC)c1O` [etoposide]: the Kd with Pgp, MRP1 and BCRP [3] was 1.26 ± 0.36 µM; in data set [4], 3.75 ± 0.97 µM; on MRP1, 4.39 ± 1.93 µM; in the data set on Pgp, MRP1 and BCRP [5], 2.25 ± 0.49 µM; on BCRP, 1.41 ± 0.54 µM. In addition, the “Reduction of breakthrough volume on addition of 2 μM verapamil” value at BCRP (0.75 μM etoposide, NMAC(LN-229)-IAM) is on record as ~ 10%; on BCRP (5 μM etoposide, NMAC(LN-229)-IAM) it was ~ 15%. For the same compound, the “Breakthrough volume with 2 μM verapamil in mobile phase” value at BCRP (5 μM etoposide, NMAC(LN-229)-IAM, 2 μM verapamil) was found to be 21.01 min.
